Data on 19 compounds can be found in patent US6812225B2, “Therapeutic heterocyclic compounds” (AstraZeneca AB, priority 2001, dated 2004).

Series [1] has as its system guinea pigs. As to the kind of experiment: Learned helplessness test. The conditions noted are these: antidepressant/antianxiety activity. It counts as in vivo, guinea pig. An excerpt: The utility of the compounds for example to treat depression may be shown via a learned helplessness test in guinea pigs, which is used extensively as correlative to antidepressant activity in humans. The learned helplessness test may be carried out as follows: Seventy male Hartley guinea pigs, each weighing about 350-425 gm are fed ad lib, and are housed under a 12-hour light/dark cycle. The procedure consists of two phases: The induction phase and the avoidance training phase. In the induction phase, subjects are placed into standard shuttle cages (20 L×16 W×21 centimeters H) which are fitted with a grid floor. Electrical stimulation (1.25 mA, 10 sec duration) is delivered to the floor of the cage every 90-sec during 1 hour daily sessions. Subjects have no opportunity to escape or to avoid shocks. Induction is conducted for 2 consecutive days.
In avoidance training, testing is also conducted in the shuttle cages, except that the subjects are not returned to the same chamber in which induction had occurred. Additionally, all cages are fitted with a partition with an arch in the center of the cage, through which animals can pass between the left and right halves of the cage. The procedure employed is a standard shuttle avoidance procedure in which a compound, conditioned stimulus (a 10-sec presentation of a tone and turning on of a lamp on the side of the cage that the guinea pig was occupying) serves to indicate presentation of electrical current to the floor of the cage. Shock is presented for a 5 sec period, 5 sec after initiation of the conditioned stimulus. Entry into the opposite side of the shuttle cage via the arched partition prior to shock onset results in the end of the trial (avoidance response). If shock is delivered, entry into the opposite side of the cage results in termination of the shock and CS (escape). Reversal of learned helplessness in the induction subjects correlates to antidepressant activity of the test compound.
Avoidance training, 45-min in duration, is conducted on 2 consecutive days, beginning 48 hr after the final induction session. Seventy subjects are assigned to 1 of 6 groups of 11-12 animals. The groups are as follows:
Groups 2-6 are given induction and avoidance training sessions. Injections are administered immediately following induction sessions and 1 hour prior to avoidance training sessions. A second injection is administered 7-8 hours following the first injection, for a total of 9 injections administered over 5 days. No injections are administered following the final avoidance training session.
Compounds of the present invention may be administered in a volume of 1 ml/kg bwt. Imipramine is dissolved in DI water. The compounds are dissolved in DI water, to which was added a few drops of lactic acid (pH 5.5). […]

Series [2] concerns the target 5-HT1B and 5HT1D receptors. To be noted: saturation studies, guinea pig cortex; read-out: Kd value of [3H]GR125743; cited from earlier work.

SMILES strings stand for the structures.

In turn, `CN1CCN(c2cccc3c2OC(C(=O)Nc2ccc(N4CCOCC4)cc2)CC3)CC1` (racemic) [Example 75, racemic-8-(4-Methyl-piperazin-1-yl)-chroman-2-carboxylic acid (4-morpholin-4-yl-phenyl)-amide] displayed a melting point of 215 to 216 °C. Same read-out and setting: to `CN1CCN(c2cccc3c2OC(C(=O)Nc2ccc(N4CCOCC4)cc2)CC3=O)CC1` (racemic) [Example 78, racemic-8-(4-methyl-piperazin-1-yl)-4-oxo-chroman-2-carboxylic acid (4-morpholin-4-yl-phenyl)-amide] belongs 215 to 216 °C; to `CN1CCN(c2cccc3c2OC(C(=O)Nc2ccc(N4CCOCC4)cc2)CC3=O)CC1` (single isomer, unassigned) [Example 79, 8-(4-Methyl-piperazin-1-yl)-4-oxo-chroman-2-carboxylic acid (4-morpholin-4-yl-phenyl)-amide], 216 °C (dec.). Still for that read-out and setting: as for `CN1CCN(c2cccc3c2OC(C(=O)Nc2ccc(N4CCOCC4)cc2)CC3=O)CC1` (single isomer, unassigned) [Example 80, 8-(4-Methyl-piperazin-1-yl)-4-oxo-chroman-2-carboxylic acid (4-morpholin-4-yl-phenyl)-amide], the figure is 215 °C (dec.). On the same count and under the same terms, as for `CN1CCN(c2cccc3c2OC(C(=O)Nc2ccc(N4CCOCC4)cc2)CC3)CC1` (single isomer, unassigned; (+)) [Example 76, (+)-8-(41-Methyl-piperazin-1-yl)-chroman-2-carboxylic acid (4-morpholin-4-yl-phenyl)-amide], the figure is 206 to 207 °C. In turn, `CN1CCN(c2cccc3c2OC(C(=O)Nc2ccc(N4CCOCC4)cc2)CC3)CC1` (single isomer, unassigned; (-)) [Example 77, (−)-8-(4-Methyl-piperazin-1-yl)-chroman-2-carboxylic acid (4-morpholin-4-yl-phenyl)-amide] yielded a melting point of 205.5 to 207 °C. Same read-out and setting: as for `CN1CCN(c2cccc3c(=O)cc(C(=O)Nc4ccc(N5CCOCC5)cc4)oc23)CC1` [Example 1, 8-(4-methyl-1-piperazinyl)-N-[4-(4-morpholinyl)phenyl]-4-oxo-4H-chromene-2-carboxamide], the figure is 217 to 218 °C (dec.); as for `CN1CCN(c2cccc3c(=O)cc(-c4nc5ccc(N6CCOCC6)cc5o4)oc23)CC1` [Example 21, 8-(4-Methyl-piperazin-1-yl)-2-(6-morpholin-4-yl-benzooxazol-2-yl)-chromen-4-one], 158.1 to 158.8 °C.

`CN1CCN(c2cccc3c(=O)cc(C(=O)Nc4ccc(N5CCOCC5)cc4O)oc23)CC1` [Example 22, 8-(4-Methyl-piperazin-1-yl)-4-oxo-4H-chromene-2-carboxylic acid (2-hydroxy-4-morpholin-4-yl-phenyl)-amide] yielded a melting point of 248.4 to 249.6 °C.

With `CN1CCN(c2cccc3c(=O)cc(C(=O)N(C)c4ccc(N5CCOCC5)cc4)oc23)CC1` [Example 25, 8-(4-Methylpiperazin-1-yl)-4-oxo-4H-chromene-2-carboxylic acid methyl-(4-morpholin-4-yl-phenyl)amide], the melting point fell in the range of 245 to 246.8 °C. In turn, `COc1cc(N2CCN(C)CC2)c2oc(C(=O)Nc3ccc(N4CCOCC4)cc3)cc(=O)c2c1` [Example 31, 6-Methoxy-8-(4-methyl-piperazin-1-yl)-4-oxo-4H-chromene-2-carboxylic acid (4-morpholin-4-yl-phenyl)-amide] yielded a melting point of 234 to 236 °C. In series [1], the “activity in the learned helplessness assay” value (shortened to “activity”) is reported as “demonstrate activity”. As to `CCC(=O)N1CCN(c2ccc(NC(=O)c3cc(=O)c4cc(OC)cc(N5CCN(C)CC5)c4o3)cc2)CC1` [Example 44, 6-Methoxy-8-(4-methyl-piperazin-1-yl)-4-oxo-4H-chromene-2-carboxylic acid [4-(4-propionyl-piperazin-1-yl)-phenyl]-amide], the “activity” value in series [1] is “demonstrate activity”. Regarding `CCS(=O)(=O)N1CCN(c2ccc(NC(=O)c3cc(=O)c4cc(OC)cc(N5CCN(C)CC5)c4o3)cc2)CC1` [Example 45, 6-Methoxy-8-(4-methyl-piperazin-1-yl)-4-oxo-4H-chromene-2-carboxylic acid [4-(4-ethanesulfonyl-piperazin-1-yl)-phenyl]-amide], the melting point was 232 to 234 °C. The compound `COc1cc(N2CCN(C)CC2)c2oc(C(=O)Nc3ccc(N4CCN(C(=O)CCO)CC4)cc3)cc(=O)c2c1` [Example 68, 6-Methoxy-8-(4-methyl-piperazin-1-yl)-4-oxo-4H-chromene-2-carboxylic acid {4-[4-(3-hydroxy-propanoyl)-piperazin-1-yl]-phenyl}-amide] gave a melting point of 195 to 197 °C. As to `CCS(=O)(=O)N1CCN(c2ccc(NC(=O)c3cc(=O)c4cc(F)cc(N5CCN(C)CC5)c4o3)cc2)CC1` [Example 71], the melting point was 233 to 234 °C. Further, the “activity” value in series [1] is “demonstrate activity”.

Consider `CCC(=O)N1CCN(c2ccc(NC(=O)c3cc(=O)c4cc(F)cc(N5CCN(C)CC5)c4o3)cc2)CC1` [Example 72, 6-flouro-8-(4-methyl-piperazin-1-yl)-4-oxo-4H-chromene-2-carboxylic acid [4-(4-propionyl-piperazin-1-yl)-phenyl]-amide], for which the melting point was in the range of 244 to 245 °C. Moreover, the “activity” value in series [1] is given as “demonstrate activity”.

For `CN1CCN(c2cc(F)cc3c(=O)cc(C(=O)Nc4ccc(N5CCN(C(=O)CCO)CC5)cc4)oc23)CC1` [Example 73, 6-Fluoro-8-(4-methyl-piperazin-1-yl)-4-oxo-4H-chromene-2-carboxylic acid {4-[4-(3-hydroxy-propanoyl)-piperazin-1-yl]-phenyl}-amide], the melting point lay within 195 to 199 °C. The compound `CCNC(=O)N1CCN(c2ccc(NC(=O)c3cc(=O)c4cc(F)cc(N5CCN(C)CC5)c4o3)cc2)CC1` [Example 81, 4-[4-({1-[6-Fluoro-8-(4-methyl-piperazin-1-yl)-4-oxo-4H-chromen-2-yl]-methanoyl}-amino)-phenyl]-piperazine-1-carboxylic acid ethylamide] registered a melting point of 236 to 238 °C.

For `COc1ccc(NC(=O)c2ccc(-c3ccncc3)c(C)c2)cc1N1CCN(C)CC1` [[^3H]-GR125743], in series [2], the Kd is 46 ± 4 pM.

The melting point is the temperature of the solid-liquid transition. Usually Kd stands for the constant that tells how readily two partners part at equilibrium.
